The record followed here is ChEMBL document CHEMBL5724914, “Linking interpersonal differences in gut microbiota composition and drug biotransformation activity” (2024).

A short description of data set [1]: The drug is tested on Z-025 corresponding to rabbit gut metagenome with ENA study accession number: PRJEB37062 and ENA sample accession number: ERS12561824 for biotransformation under anaerobic condition. The drug concentrations were measured over 9 timepoints collected between 0 and 24 hours of incubation by liquid-chromatography-coupled mass spectrometry (LC–MS). To be noted: 2 µM.

The nature of data set [2]: The drug is tested on Z-024 corresponding to pig gut metagenome with ENA study accession number: PRJEB37062 and ENA sample accession number: ERS12561823 for biotransformation under anaerobic condition. The drug concentrations were measured over 9 timepoints collected between 0 and 24 hours of incubation by liquid-chromatography-coupled mass spectrometry (LC–MS). To be noted: 2 µM.

The nature of data set [3]: The drug is tested on Z-022 corresponding to mouse gut metagenome with ENA study accession number: PRJEB37062 and ENA sample accession number: ERS12561821 for biotransformation under anaerobic condition. The drug concentrations were measured over 9 timepoints collected between 0 and 24 hours of incubation by liquid-chromatography-coupled mass spectrometry (LC–MS). Conditions: 2 µM.

Data set [4] can be described thus: The drug is tested on Z-021 corresponding to metagenome with ENA study accession number: PRJEB37062 and ENA sample accession number: ERS12561820 for biotransformation under anaerobic condition. The drug concentrations were measured over 9 timepoints collected between 0 and 24 hours of incubation by liquid-chromatography-coupled mass spectrometry (LC–MS). Conditions: 2 µM.

The nature of data set [5]: The drug is tested on Z-003 corresponding to pig gut metagenome with ENA study accession number: PRJEB37062 and ENA sample accession number: ERS12561803 for biotransformation under anaerobic condition. The drug concentrations were measured over 9 timepoints collected between 0 and 24 hours of incubation by liquid-chromatography-coupled mass spectrometry (LC–MS). Conditions: 2 µM.

The nature of data set [6]: The drug is tested on WLS-350 corresponding to human gut metagenome with ENA study accession number: PRJEB37062 and ENA sample accession number: ERS12561789 for biotransformation under anaerobic condition. The drug concentrations were measured over 9 timepoints collected between 0 and 24 hours of incubation by liquid-chromatography-coupled mass spectrometry (LC–MS). Conditions: 2 µM.

Data set [7] in a line: The drug is tested on WLS-240 corresponding to human gut metagenome with ENA study accession number: PRJEB37062 and ENA sample accession number: ERS12561773 for biotransformation under anaerobic condition. The drug concentrations were measured over 9 timepoints collected between 0 and 24 hours of incubation by liquid-chromatography-coupled mass spectrometry (LC–MS). To be noted: 2 µM.

Data set [8] in a line: The drug is tested on WLS-086 corresponding to human gut metagenome with ENA study accession number: PRJEB37062 and ENA sample accession number: ERS12561752 for biotransformation under anaerobic condition. The drug concentrations were measured over 9 timepoints collected between 0 and 24 hours of incubation by liquid-chromatography-coupled mass spectrometry (LC–MS). Conditions: 2 µM.

A short description of data set [9]: The drug is tested on WLS-077 corresponding to human gut metagenome with ENA study accession number: PRJEB37062 and ENA sample accession number: ERS12561750 for biotransformation under anaerobic condition. The drug concentrations were measured over 9 timepoints collected between 0 and 24 hours of incubation by liquid-chromatography-coupled mass spectrometry (LC–MS). To be noted: 2 µM.

Data set [10] can be described thus: The drug is tested on WLS-069 corresponding to human gut metagenome with ENA study accession number: PRJEB37062 and ENA sample accession number: ERS12561748 for biotransformation under anaerobic condition. The drug concentrations were measured over 9 timepoints collected between 0 and 24 hours of incubation by liquid-chromatography-coupled mass spectrometry (LC–MS). Conditions: 2 µM.

A short description of data set [11]: The drug is tested on WLS-039 corresponding to human gut metagenome with ENA study accession number: PRJEB37062 and ENA sample accession number: ERS12561746 for biotransformation under anaerobic condition. The drug concentrations were measured over 9 timepoints collected between 0 and 24 hours of incubation by liquid-chromatography-coupled mass spectrometry (LC–MS). Conditions: 2 µM.

Data set [12] can be described thus: The drug is tested on WLS-038 corresponding to human gut metagenome with ENA study accession number: PRJEB37062 and ENA sample accession number: ERS12561745 for biotransformation under anaerobic condition. The drug concentrations were measured over 9 timepoints collected between 0 and 24 hours of incubation by liquid-chromatography-coupled mass spectrometry (LC–MS). To be noted: 2 µM.

For data set [13] the following is noted: human gut metagenome, 24 h, 2 µM.
The conditions of data set [14]: human gut metagenome, 24 h, 2 µM. This is another data set of the same source.
For data set [15] the following is noted: human gut metagenome, 24 h, 2 µM. This is another data set of the same source.
For data set [16] the following is noted: human gut metagenome, 24 h, 2 µM. This is another data set of the same source.
The conditions of data set [17]: human gut metagenome, 24 h, 2 µM. The source holds these as a separate data set.
The conditions of data set [18]: human gut metagenome, 24 h, 2 µM. This is another data set of the same source.
For data set [19] the following is noted: human gut metagenome, 24 h, 2 µM. The source holds these as a separate data set.
For data set [20] the following is noted: human gut metagenome, 24 h, 2 µM. The source holds these as a separate data set.
Also: call rule not given here.

`CN1CCN(C2=Nc3cc(Cl)ccc3Nc3ccccc32)CC1` [CLOZAPINE]: the “Bacterial Biotransformation” value is “Compound NOT metabolized” in [1]; “Compound NOT metabolized” in data set [2]; “Compound NOT metabolized” in data set [3]; “Compound NOT metabolized” in data set [4]; “Compound NOT metabolized” in data set [5]; “Compound metabolized” in [6]. In addition, the “Bacterial Biotransformation” value in data set [7] is recorded as “Compound metabolized”; in data set [8], “Compound metabolized”; in data set [9], “Compound NOT metabolized”; in [10] it was “Compound NOT metabolized”; in data set [11], “Compound metabolized”; in data set [12], “Compound NOT metabolized”. In addition, the “Bacterial Biotransformation” value is on record as “Compound NOT metabolized” in [13]; “Compound metabolized” in [14]; “Compound NOT metabolized” in data set [15]; “Compound metabolized” in [16]; “Compound metabolized” in data set [17]; “Compound metabolized” in data set [18]. The “Bacterial Biotransformation” value in data set [19] and in data set [20] was “Compound metabolized” each time.

Turning to `COc1cc2c(c(OC)c1OC)-c1ccc(OC)c(=O)cc1[C@@H](NC(C)=O)CC2` [COLCHICINE], the “Bacterial Biotransformation” value in [1] is “Compound NOT metabolized”; in data set [2] it was “Compound NOT metabolized”; in data set [3], “Compound metabolized”; in [4], “Compound NOT metabolized”; in [5], “Compound NOT metabolized”; in data set [6], “Compound NOT metabolized”. Further, the “Bacterial Biotransformation” value in data set [7] was “Compound metabolized”; in [8], “Compound NOT metabolized”; in data set [9], “Compound metabolized”; in data set [10] it was “Compound metabolized”; in data set [11], “Compound metabolized”; in [12], “Compound NOT metabolized”. In addition, the “Bacterial Biotransformation” value is “Compound NOT metabolized” in data set [13]; “Compound NOT metabolized” in data set [14]; “Compound metabolized” in [15]; “Compound metabolized” in [16]; “Compound metabolized” in [17]; “Compound metabolized” in data set [18]. Besides, the “Bacterial Biotransformation” value in data set [19] and in data set [20] was “Compound metabolized” throughout.

As for `CC(=O)OCC(=O)[C@@]12N=C(C)O[C@@H]1C[C@H]1[C@@H]3CCC4=CC(=O)C=C[C@]4(C)[C@H]3[C@@H](O)C[C@@]12C` [DEFLAZACORT], the “Bacterial Biotransformation” value in data set [1], in data set [2], in data set [3], in [4], in data set [5] and in data set [6] was “Compound metabolized” throughout. The “Bacterial Biotransformation” value in [7], in [8], in data set [9], in [10], in [11] and in data set [12] was “Compound metabolized” throughout. The “Bacterial Biotransformation” value in [13], in [14], in data set [15], in data set [16], in data set [17] and in data set [18] was “Compound metabolized” in each case. For the same compound, the “Bacterial Biotransformation” value in data set [19] and in [20] was “Compound metabolized” each time.

Consider `CN(C)CC(c1ccc(O)cc1)C1(O)CCCCC1.O=C(O)CCC(=O)O` (stereo not given) [DESVENLAFAXINE SUCCINATE], for which the “Bacterial Biotransformation” value in [1], in data set [2], in [3], in data set [4], in data set [5] and in data set [6] was “Compound NOT metabolized” throughout. Moreover, the “Bacterial Biotransformation” value in data set [7], in data set [8], in data set [9], in data set [10], in [11] and in data set [12] was “Compound NOT metabolized” each time. Also, the “Bacterial Biotransformation” value in [13], in data set [14], in data set [15], in data set [16], in data set [17] and in [18] was “Compound NOT metabolized” each time. Moreover, the “Bacterial Biotransformation” value in [19] and in data set [20] was “Compound NOT metabolized” throughout.

As to `CN1CCN(C(=O)O[C@H]2c3nccnc3C(=O)N2c2ccc(Cl)cn2)CC1` [ESZOPICLONE], the “Bacterial Biotransformation” value in [1], in data set [2], in data set [3], in [4], in [5] and in data set [6] was “Compound NOT metabolized” each time. Moreover, the “Bacterial Biotransformation” value in data set [7], in [8], in [9], in [10], in data set [11] and in data set [12] was “Compound NOT metabolized” in each case. In addition, the “Bacterial Biotransformation” value in [13], in data set [14], in [15], in [16], in [17] and in [18] was “Compound NOT metabolized” throughout. Also, the “Bacterial Biotransformation” value in [19] and in [20] was “Compound NOT metabolized” throughout.
